In patent US11339191B2, “Stapled peptides and uses thereof” (Universite de Montpellier, priority 2016, dated 2022):
Bridge positions count the residues as written; N and C are the ends. Square brackets hold non-standard residues; d marks the D form. S5 = C=CCCC[C@](C)(N)C(=O)O; Nle = CCCC[C@H](N)C(=O)O

Key:
Assay type in all cases: cell-based, human
[1] = tested on: CHOP, BIP and GRP94 genes; assay: Tunicamycin-induced ER stress in THP-1 cells, expression of the CHOP, BIP and GRP94 genes by RT-qPCR; conditions: THP-1, tunicamycin 0.1 μg/ml
Method: To assess the specificity of recognition of stapled peptides IRAK2, we induced ER stress in human monocytic cell line THP-1 by treatment with tunicamycin (0.1 μg/ml) for 8 h and 24 h.
THP-1 cells were cultured (300 000 cells/well) in RPMI 1640 supplemented with 10% fetal calf serum, 1% penicillin/streptomycin and L-glutamine. The cells were treated with 0.1 μg/ml tunicamycin for 30 min, 8 H or 24 H. The peptide was solubilized in 4% DMSO and used at concentrations ranging from 1 to 20 μM. Total cell RNAs were extracted with the miRNeasy kit (Qiagen), the expression levels of the genes were measured by RT-qPCR with Taqman assays (Lifetechnology) technology.
We have shown that IRAK2 is the main kinase expressed at 8 h, compared to IRAK1 (FIG. 3A). Measurement of the expression of the CHOP, BIP and GRP94 genes validated the activation of the ER stress at 8H as expected according to literature (FIG. 3B). In this study the peptides IRAK2 Li, IRAKM Li, IRAK2 S1, IRAK2 S2 (Li for linear peptide and S1 and S2 for stapled peptide) were tested. […] This inhibition was specific since, stapled peptide concentration of 20 μM, control stapled peptide (Mock S) has no effect (FIG. 3D).

TNFα = assay: LPS-stimulated THP-1 monocytes, TNFα in culture supernatant by ELISA
Method: (§1) THP1 cells were cultured (300 000 cells/well) in RPMI 1640 supplemented with 10% fetal calf serum, 1% penicillin/streptomycin and L-glutamine. The cells were treated with 0.1 μg/ml LPS for 6 h for TNFα, and 24 h for IL-6 and IL-1β. The peptides were solubilized in 4% DMSO and used at 5 and 20 μM. The peptides were added at the same time as the LPS. The determination of the cytokines in the culture supernatants was carried out with the specific ELISA kits (eBioscience).
(§2) For all conditions tested, THP-1 monocytes were cultured (300 000 cells/well) in RPMI with 10% fetal calf serum; 1% penicillin/streptomycin and L-glutamine. THP-1 were treated with 0.1 μg/mL of LPS for 24 hours, stapled-peptides IRAK2-S1 et IRAKM-S1 were used at 1 to 20 μM and added at the same time for condition A, 6 hours before LPS for condition B and 6 hours after LPS for condition C. The quantification of cytokine in the culture supernatants was carried out with specific IL-6 and TNFα ELISA (eBioscience).
(§3) For all conditions tested, THP-1 monocytes were cultured (300 000 cells/well) in RPMI with 10% fetal calf serum; 1% penicillin/streptomycin and L-glutamine. THP-1 were treated with 0.1 μg/mL of LPS for 24 hours, stapled-peptides IRAK2-S1, IRAK2-JMV6649, IRAKM-S1 and IRAKM-JMV6650 were used at 10 to 20 μM and added at the same time for «Simultaneous» condition, 6 hours before LPS for «preventive» condition and 6 hours after LPS for «curative» condition. Using ELISA (eBioscience), IL-6 and TNFα quantification was carried out in monocyte culture supernatants.

IL-6 = assay: LPS-stimulated THP-1 monocytes, IL-6 in culture supernatant by ELISA; conditions: for effect on the expression level of IL-6: curative condition (peptide 6 hours after LPS), 1 to 20 μM; for IL-6 expression compared with the S1 peptide: curative condition; for efficacy on IL-6 compared with the IRAK2 peptide (IRAK2-S1): 10 to 20 μM
Method: as §1, §2, §3

IL-1β [2] = assay: PMA-induced macrophage differentiation of THP-1 monocytes, IL-1β RNA (RT-qPCR) and secretion (ELISA); conditions: THP-1, PMA 0.1 μg/ml 48 h, peptide 20 μM
Method: (§4) We stimulated the THP-1 monocytes with 0.1 μg/ml PMA for 48 h to induce differentiation into macrophages, and treated with 20 μM stapled peptide (IRAK2-S1 or Mock-S).
(§5) THP1 cells were cultured (300,000 cells/well) in RPMI 1640 supplemented with 10% fetal calf serum, 1% penicillin/streptomycin and L-glutamine. The cells were treated with 0.1 μg/ml of PMA for 48 h. The peptides were solubilized in 4% DMSO and used at 20 μM. The peptides are added together with the PMA. Total RNA of the cells were extracted by the miRNeasy kit (Qiagen), the level of expression of IL-1β was measured by RT-qPCR technology by Taqman assays (lifetechnology)
(§6) After extraction of the RNAs, we quantified by RT-qPCR the level of expression of the RNA of IL-1β (FIG. 4A). Using ELISA method, the cytokine secretion was measured in the supernatant of the treated THP-1 (FIG. 4B). The IRAK2-S1 peptide was able to block the expression and production of IL-1β at 20 μM. At this concentration, the peptide appears to have no effect on viability and morphology of the cells.

THP-1 cells = assay: Viability and morphology of PMA-treated THP-1 cells with peptide; conditions: THP-1, peptide 20 μM
Method: as §4, §5, §6

IL-1β [3] = assay: LPS-stimulated THP-1 monocytes, IL-1β in culture supernatant by ELISA; conditions: THP1, LPS 0.1 μg/ml 24 h, peptide 5 and 20 μM added at the same time as LPS
Method: as §1

[4] = simultaneous condition, peptide 20 μM
[5] = curative condition (peptide 6 hours after LPS), 10 μM
[6] = curative condition (peptide 6 hours after LPS), 20 μM
[7] = preventive condition (peptide 6 hours before LPS), 20 μM
[8] = simultaneous condition, LPS 0.1 μg/mL 24 h, peptide 10 and 20 μM
[9] = preventive condition (peptide 6 hours before LPS), 10 μM

Ac-ITF-S5-NLL-S5-YYGP-NH2 (Ac-ITF[S5]NLL[S5]YYGP-NH2; staple 4-8; SMILES CC[C@H](C)[C@H](NC(C)=O)C(=O)N[C@H](C(=O)N[C@@H](Cc1ccccc1)C(=O)N[C@@]1(C)CCCC=CCCC[C@@](C)(C(=O)N[C@@H](Cc2ccc(O)cc2)C(=O)N[C@@H](Cc2ccc(O)cc2)C(=O)NCC(=O)N2CCC[C@H]2C(N)=O)NC(=O)[C@H](CC(C)C)NC(=O)[C@H](CC(C)C)NC(=O)[C@H](CC(N)=O)NC1=O)[C@@H](C)O) [Mock-S, reference compound]
expression of ER stress genes (specificity control) ([1]; peptide 20 μM): no effect | inhibition of TNFα expression (TNFα; [4]): 15 to 20% | inhibition of IL-6 expression (IL-6; [4]): 15 to 20%

Ac-KSG-S5-REL-S5-WSWAQK-NH2 (Ac-KSG[S5]REL[S5]WSWAQK-NH2; staple 4-8; SMILES CC(=O)N[C@@H](CCCCN)C(=O)N[C@@H](CO)C(=O)NCC(=O)N[C@@]1(C)CCCC=CCCC[C@@](C)(C(=O)N[C@@H](Cc2c[nH]c3ccccc23)C(=O)N[C@@H](CO)C(=O)N[C@@H](Cc2c[nH]c3ccccc23)C(=O)N[C@@H](C)C(=O)N[C@@H](CCC(N)=O)C(=O)N[C@@H](CCCCN)C(N)=O)NC(=O)[C@H](CC(C)C)NC(=O)[C@H](CCC(=O)O)NC(=O)[C@H](CCCNC(=N)N)NC1=O) [IRAKM-S1]
inhibition of TNFα secretion (TNFα; [5]): No inhibition | inhibition of TNFα secretion (TNFα; [6]): 15 to 20% | inhibition of TNFα secretion (TNFα; [7]): 95% | inhibition of TNFα secretion (TNFα; [8]): significantly inhibit | inhibition of TNFα expression (TNFα; [4]): up to 95% | effect on the expression level of IL-6 (IL-6): no effect | inhibition of IL-6 secretion (IL-6; [7]): 90% | inhibition of IL-6 secretion (IL-6; [8]): significantly inhibit | inhibition of IL-6 expression (IL-6; [4]): ≤ 90%

Ac-KSG-S5-REL-S5-WSWAQKNKTI-NH2 (Ac-KSG[S5]REL[S5]WSWAQKNKTI-NH2; staple 4-8; SMILES CC[C@H](C)[C@H](NC(=O)[C@@H](NC(=O)[C@H](CCCCN)NC(=O)[C@H](CC(N)=O)NC(=O)[C@H](CCCCN)NC(=O)[C@H](CCC(N)=O)NC(=O)[C@H](C)NC(=O)[C@H](Cc1c[nH]c2ccccc12)NC(=O)[C@H](CO)NC(=O)[C@H](Cc1c[nH]c2ccccc12)NC(=O)[C@]1(C)CCCC=CCCC[C@](C)(NC(=O)CNC(=O)[C@H](CO)NC(=O)[C@H](CCCCN)NC(C)=O)C(=O)N[C@@H](CCCNC(=N)N)C(=O)N[C@@H](CCC(=O)O)C(=O)N[C@@H](CC(C)C)C(=O)N1)[C@@H](C)O)C(N)=O) [IRAKM-JMV6649]
increase of inhibition of TNFα expression compared with IRAKM-S1 (TNFα; curative condition, 20 μM): not significant | greater inhibition of TNFα expression compared with IRAKM-S1 (TNFα; preventive condition, 10 μM): 20% | additive inhibitory effect on TNFα expression compared with IRAKM-S1 (TNFα; simultaneous condition, 20 μM): no additive inhibitory effect | IL-6 expression compared with the S1 peptide (IL-6; 20 μM): not significant | additional inhibition of IL-6 expression compared with IRAKM-S1 (IL-6; preventive condition, 10 μM): 60% | additional inhibition of IL-6 expression compared with IRAKM-S1 (IL-6; preventive condition, 20 μM): 80% | decrease of IL-6 secretion compared with IRAKM-S1 (IL-6; simultaneous condition, 20 μM): more than 70%

Ac-S5-REL-S5-WWWGBRQA-NH2 (Ac-[S5]REL[S5]WWWG[Nle]RQA-NH2; staple 1-5; SMILES CCCC[C@H](NC(=O)CNC(=O)[C@H](Cc1c[nH]c2ccccc12)NC(=O)[C@H](Cc1c[nH]c2ccccc12)NC(=O)[C@H](Cc1c[nH]c2ccccc12)NC(=O)[C@]1(C)CCCC=CCCC[C@](C)(NC(C)=O)C(=O)N[C@@H](CCCNC(=N)N)C(=O)N[C@@H](CCC(=O)O)C(=O)N[C@@H](CC(C)C)C(=O)N1)C(=O)N[C@@H](CCCNC(=N)N)C(=O)N[C@@H](CCC(N)=O)C(=O)N[C@@H](C)C(N)=O) [IRAK2-S1]
expression of CHOP, GRP94 and BIP (ER stress) ([1]; simultaneous treatment, peptide 1 to 20 μM, RT-qPCR): blocked in a dose-dependent manner | production of IL-1β in supernatant (IL-1β [2]; ELISA): able to block | expression of IL-1β RNA (IL-1β [2]; RT-qPCR): able to block | effect on viability and morphology of the cells (THP-1 cells): no effect | TNFα secreted after LPS stimulation (TNFα; THP1, LPS 0.1 μg/ml 6 h, peptide 5 and 20 μM added at the same time as LPS): reduced the expression of the 3 cytokines in a dose-dependent manner | inhibition of TNFα secretion (TNFα; [5]): ≤ 30% | inhibition of TNFα secretion (TNFα; [6]): ≤ 70% | inhibition of TNFα expression (TNFα; [9]): No inhibition | inhibition of TNFα secretion (TNFα; [7]): 15 to 20% | inhibition of TNFα secretion (TNFα; [8]): significantly inhibit | IL-6 secreted after LPS stimulation (IL-6; THP1, LPS 0.1 μg/ml 24 h, peptide 5 and 20 μM added at the same time as LPS): reduced the expression of the 3 cytokines in a dose-dependent manner | effect on the expression level of IL-6 (IL-6): no effect | inhibition of IL-6 expression (IL-6; [9]): No inhibition | inhibition of IL-6 secretion (IL-6; [7]): 15 to 20% | inhibition of IL-6 secretion (IL-6; [8]): significantly inhibit | IL-1β secreted after LPS stimulation (IL-1β [3]): reduced the expression of the 3 cytokines in a dose-dependent manner

Ac-VSI-S5-REL-S5-WWWGBRQATV-NH2 (Ac-VSI[S5]REL[S5]WWWG[Nle]RQATV-NH2; staple 4-8; SMILES CCCC[C@H](NC(=O)CNC(=O)[C@H](Cc1c[nH]c2ccccc12)NC(=O)[C@H](Cc1c[nH]c2ccccc12)NC(=O)[C@H](Cc1c[nH]c2ccccc12)NC(=O)[C@]1(C)CCCC=CCCC[C@](C)(NC(=O)[C@@H](NC(=O)[C@H](CO)NC(=O)[C@@H](NC(C)=O)C(C)C)[C@@H](C)CC)C(=O)N[C@@H](CCCNC(=N)N)C(=O)N[C@@H](CCC(=O)O)C(=O)N[C@@H](CC(C)C)C(=O)N1)C(=O)N[C@@H](CCCNC(=N)N)C(=O)N[C@@H](CCC(N)=O)C(=O)N[C@@H](C)C(=O)N[C@H](C(=O)N[C@H](C(N)=O)C(C)C)[C@@H](C)O) [IRAK2-JMV6650]
additional inhibition of TNFα production compared with the S1 peptide (TNFα; curative condition, 10 to 20 μM): not significant | efficacy on TNFα compared with the IRAK2 peptide (IRAK2-S1) (TNFα; preventive condition, 10 to 20 μM, data not shown): No more efficacy | efficacy on TNFα compared with the IRAK2 peptide (IRAK2-S1) (TNFα; simultaneous condition, 10 to 20 μM): No more efficacy | IL-6 expression compared with the S1 peptide (IL-6; 20 μM): acts as IRAK2-S1 | efficacy on IL-6 compared with the IRAK2 peptide (IRAK2-S1) (IL-6; preventive condition, data not shown): No more efficacy | efficacy on IL-6 compared with the IRAK2 peptide (IRAK2-S1) (IL-6; simultaneous condition): No more efficacy
